Reference: paper PMC7604503, “Cyclic peptides can engage a single binding pocket through highly divergent modes” (Proceedings of the National Academy of Sciences of the …, 2020)
Where a SMILES comes first, the peptide text is derived from it. Bridges are numbered along the chain shown (N, C = ends).

Assays:
Experiment in all cases: BROMOscan competition binding assay (BromoMAX, Eurofins DiscoverX)
BRD4(2) = target: T1, BRD4(2) (Homo sapiens, UniProt O60885); settings: for Percent Control BRD4(2): compound concentration 1000 nM, lower percentage control = stronger affinity
T1 construct: BRD4(2); purchased Eurofins DiscoverX (BROMOscan, BromoMAX)

BRD7 = target: T2, BRD7 (Homo sapiens, UniProt Q9NPI1); settings: for Percent Control BRD7: compound concentration 1000 nM, lower percentage control = stronger affinity
T2 construct: purchased Eurofins DiscoverX (BROMOscan, BromoMAX)
T2 sequence (Q9NPI1 1-651): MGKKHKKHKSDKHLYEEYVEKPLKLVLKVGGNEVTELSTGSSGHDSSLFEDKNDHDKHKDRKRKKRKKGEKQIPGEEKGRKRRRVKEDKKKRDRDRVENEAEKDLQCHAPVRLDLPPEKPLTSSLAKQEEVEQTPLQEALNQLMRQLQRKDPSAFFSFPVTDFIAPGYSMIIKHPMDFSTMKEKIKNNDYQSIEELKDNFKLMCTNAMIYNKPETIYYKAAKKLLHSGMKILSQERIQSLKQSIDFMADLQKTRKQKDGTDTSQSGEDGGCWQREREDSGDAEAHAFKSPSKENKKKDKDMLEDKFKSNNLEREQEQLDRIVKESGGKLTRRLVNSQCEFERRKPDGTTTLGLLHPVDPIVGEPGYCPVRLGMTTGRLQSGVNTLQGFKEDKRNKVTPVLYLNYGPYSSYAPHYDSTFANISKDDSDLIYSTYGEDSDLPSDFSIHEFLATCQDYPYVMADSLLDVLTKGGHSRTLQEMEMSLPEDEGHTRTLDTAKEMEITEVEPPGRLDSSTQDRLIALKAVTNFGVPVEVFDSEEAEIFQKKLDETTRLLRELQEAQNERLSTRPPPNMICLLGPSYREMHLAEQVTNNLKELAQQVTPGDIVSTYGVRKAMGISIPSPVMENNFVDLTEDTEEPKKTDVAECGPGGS

FALZ = target: T3, FALZ (Homo sapiens, UniProt Q12830); settings: for Percent Control FALZ: compound concentration 1000 nM, lower percentage control = stronger affinity
T3 construct: purchased Eurofins DiscoverX (BROMOscan, BromoMAX)

BRD3(1) = target: T4, BRD3(1) (Homo sapiens, UniProt Q15059); settings: for Percent Control BRD3(1): compound concentration 1000 nM, lower percentage control = stronger affinity
T4 construct: BRD3(1); purchased Eurofins DiscoverX (BROMOscan, BromoMAX)

BRD2(1) = target: T5, BRD2(1) (Homo sapiens, UniProt P25440); settings: for Percent Control BRD2(1): compound concentration 1000 nM, lower percentage control = stronger affinity
T5 construct: BRD2(1); purchased Eurofins DiscoverX (BROMOscan, BromoMAX)

BAZ2B = target: T6, BAZ2B (Homo sapiens, UniProt Q9UIF8); settings: for Percent Control BAZ2B: compound concentration 1000 nM, lower percentage control = stronger affinity
T6 construct: purchased Eurofins DiscoverX (BROMOscan, BromoMAX)

CREBBP = target: T7, CREBBP (Homo sapiens, UniProt Q92793); settings: for Percent Control CREBBP: compound concentration 1000 nM, lower percentage control = stronger affinity
T7 construct: purchased Eurofins DiscoverX (BROMOscan, BromoMAX)

BRDT(1) = target: T8, BRDT(1) (Homo sapiens, UniProt Q58F21); settings: for Percent Control BRDT(1): compound concentration 1000 nM, lower percentage control = stronger affinity
T8 construct: BRDT(1); purchased Eurofins DiscoverX (BROMOscan, BromoMAX)

BRD1 = target: T9, BRD1 (Homo sapiens, UniProt O95696); settings: for Percent Control BRD1: compound concentration 1000 nM, lower percentage control = stronger affinity
T9 construct: purchased Eurofins DiscoverX (BROMOscan, BromoMAX)
T9 sequence (O95696 1-1058): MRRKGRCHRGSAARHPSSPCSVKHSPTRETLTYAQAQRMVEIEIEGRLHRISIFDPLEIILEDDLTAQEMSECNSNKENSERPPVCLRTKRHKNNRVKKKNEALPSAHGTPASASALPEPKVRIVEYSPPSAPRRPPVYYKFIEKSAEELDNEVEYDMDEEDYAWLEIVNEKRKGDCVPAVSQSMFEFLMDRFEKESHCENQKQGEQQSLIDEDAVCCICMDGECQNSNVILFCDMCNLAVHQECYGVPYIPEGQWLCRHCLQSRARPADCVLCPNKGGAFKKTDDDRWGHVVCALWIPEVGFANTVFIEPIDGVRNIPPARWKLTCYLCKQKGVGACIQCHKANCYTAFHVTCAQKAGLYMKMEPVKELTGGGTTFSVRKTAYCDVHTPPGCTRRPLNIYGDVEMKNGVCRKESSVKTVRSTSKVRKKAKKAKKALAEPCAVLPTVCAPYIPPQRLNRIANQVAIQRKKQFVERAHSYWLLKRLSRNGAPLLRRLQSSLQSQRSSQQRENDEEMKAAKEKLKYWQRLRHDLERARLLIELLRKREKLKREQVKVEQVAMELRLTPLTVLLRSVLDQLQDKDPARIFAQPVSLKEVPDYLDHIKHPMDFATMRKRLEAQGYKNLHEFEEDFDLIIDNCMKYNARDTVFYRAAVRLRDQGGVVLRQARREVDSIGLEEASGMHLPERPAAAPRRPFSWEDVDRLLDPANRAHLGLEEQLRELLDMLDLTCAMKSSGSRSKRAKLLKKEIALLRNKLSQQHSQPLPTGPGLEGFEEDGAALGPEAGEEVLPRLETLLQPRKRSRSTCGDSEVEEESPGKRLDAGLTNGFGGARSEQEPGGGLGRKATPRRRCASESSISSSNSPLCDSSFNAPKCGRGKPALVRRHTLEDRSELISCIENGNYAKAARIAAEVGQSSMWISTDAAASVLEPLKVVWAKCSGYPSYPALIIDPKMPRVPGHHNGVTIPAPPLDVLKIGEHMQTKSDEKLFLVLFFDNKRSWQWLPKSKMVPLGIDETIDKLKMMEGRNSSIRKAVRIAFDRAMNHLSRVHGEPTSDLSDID

SMARCA2 = target: T10, SMARCA2 (Homo sapiens, UniProt P51531); settings: for Percent Control SMARCA2: compound concentration 1000 nM, lower percentage control = stronger affinity
T10 construct: purchased Eurofins DiscoverX (BROMOscan, BromoMAX)

T4 sequence (Q15059 24-144 limits assumed): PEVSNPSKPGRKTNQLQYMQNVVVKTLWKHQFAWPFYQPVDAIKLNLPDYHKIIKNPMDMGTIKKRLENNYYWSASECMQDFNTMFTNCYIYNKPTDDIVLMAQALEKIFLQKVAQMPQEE
T7 sequence (Q92793 whole entry): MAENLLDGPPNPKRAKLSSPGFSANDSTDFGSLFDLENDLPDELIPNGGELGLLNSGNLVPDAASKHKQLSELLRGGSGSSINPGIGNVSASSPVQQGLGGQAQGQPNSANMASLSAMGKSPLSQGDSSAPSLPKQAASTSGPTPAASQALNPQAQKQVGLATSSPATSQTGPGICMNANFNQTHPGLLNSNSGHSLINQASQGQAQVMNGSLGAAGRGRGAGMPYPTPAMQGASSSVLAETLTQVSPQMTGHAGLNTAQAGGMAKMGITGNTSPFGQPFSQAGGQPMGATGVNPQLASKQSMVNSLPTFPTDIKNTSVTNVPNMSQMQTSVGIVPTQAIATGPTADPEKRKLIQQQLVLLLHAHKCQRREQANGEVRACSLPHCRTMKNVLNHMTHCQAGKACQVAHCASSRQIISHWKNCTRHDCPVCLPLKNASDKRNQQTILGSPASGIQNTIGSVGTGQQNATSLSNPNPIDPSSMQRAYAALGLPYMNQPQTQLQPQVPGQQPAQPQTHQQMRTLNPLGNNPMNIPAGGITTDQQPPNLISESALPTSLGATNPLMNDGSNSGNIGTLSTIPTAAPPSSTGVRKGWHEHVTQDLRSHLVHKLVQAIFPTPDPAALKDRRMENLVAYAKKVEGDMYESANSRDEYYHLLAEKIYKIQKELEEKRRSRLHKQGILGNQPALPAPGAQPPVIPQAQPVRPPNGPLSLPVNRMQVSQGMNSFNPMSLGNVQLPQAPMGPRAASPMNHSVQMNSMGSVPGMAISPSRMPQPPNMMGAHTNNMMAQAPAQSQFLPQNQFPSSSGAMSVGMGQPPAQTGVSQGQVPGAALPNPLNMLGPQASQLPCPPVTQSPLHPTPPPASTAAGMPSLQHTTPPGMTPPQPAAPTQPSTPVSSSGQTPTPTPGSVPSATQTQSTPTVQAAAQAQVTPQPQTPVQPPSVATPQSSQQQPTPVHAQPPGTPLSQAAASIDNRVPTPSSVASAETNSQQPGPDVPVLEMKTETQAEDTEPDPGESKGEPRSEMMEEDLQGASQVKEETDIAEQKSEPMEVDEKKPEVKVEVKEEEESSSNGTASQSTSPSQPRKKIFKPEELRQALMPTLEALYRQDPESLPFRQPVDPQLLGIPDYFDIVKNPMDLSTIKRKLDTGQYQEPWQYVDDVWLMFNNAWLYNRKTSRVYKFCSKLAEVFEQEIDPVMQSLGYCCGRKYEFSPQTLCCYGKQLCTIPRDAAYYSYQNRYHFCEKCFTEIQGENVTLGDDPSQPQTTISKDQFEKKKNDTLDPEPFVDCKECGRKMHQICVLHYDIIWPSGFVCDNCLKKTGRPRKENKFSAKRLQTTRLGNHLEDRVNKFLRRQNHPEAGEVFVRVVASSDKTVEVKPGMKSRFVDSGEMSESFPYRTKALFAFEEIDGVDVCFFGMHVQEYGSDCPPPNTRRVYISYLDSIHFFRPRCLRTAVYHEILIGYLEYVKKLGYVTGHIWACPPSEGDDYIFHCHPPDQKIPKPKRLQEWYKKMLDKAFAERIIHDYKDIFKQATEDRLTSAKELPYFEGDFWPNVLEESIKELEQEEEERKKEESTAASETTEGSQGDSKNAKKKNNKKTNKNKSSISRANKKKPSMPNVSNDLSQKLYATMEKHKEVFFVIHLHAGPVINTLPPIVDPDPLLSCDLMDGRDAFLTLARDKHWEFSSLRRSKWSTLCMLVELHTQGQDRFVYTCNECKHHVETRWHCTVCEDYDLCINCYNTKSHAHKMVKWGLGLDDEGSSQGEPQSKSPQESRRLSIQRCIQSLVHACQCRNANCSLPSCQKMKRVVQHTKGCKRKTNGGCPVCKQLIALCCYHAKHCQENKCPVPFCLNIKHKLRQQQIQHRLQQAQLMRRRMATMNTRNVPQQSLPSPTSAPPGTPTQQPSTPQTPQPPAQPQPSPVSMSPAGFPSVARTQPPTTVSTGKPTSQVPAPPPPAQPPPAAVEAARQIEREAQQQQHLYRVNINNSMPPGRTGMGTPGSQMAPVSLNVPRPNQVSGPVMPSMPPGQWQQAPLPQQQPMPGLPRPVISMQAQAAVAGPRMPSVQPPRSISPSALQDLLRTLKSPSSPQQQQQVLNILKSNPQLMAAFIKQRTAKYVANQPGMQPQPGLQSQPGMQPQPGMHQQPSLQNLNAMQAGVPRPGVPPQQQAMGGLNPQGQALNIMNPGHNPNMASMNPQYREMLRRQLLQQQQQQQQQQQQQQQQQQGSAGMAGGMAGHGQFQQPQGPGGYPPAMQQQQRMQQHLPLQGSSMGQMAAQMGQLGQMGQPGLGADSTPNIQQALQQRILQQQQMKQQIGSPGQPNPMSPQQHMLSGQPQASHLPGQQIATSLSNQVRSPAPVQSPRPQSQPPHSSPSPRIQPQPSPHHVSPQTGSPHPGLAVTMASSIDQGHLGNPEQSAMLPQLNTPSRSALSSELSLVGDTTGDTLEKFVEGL
T6 sequence (Q9UIF8 whole entry): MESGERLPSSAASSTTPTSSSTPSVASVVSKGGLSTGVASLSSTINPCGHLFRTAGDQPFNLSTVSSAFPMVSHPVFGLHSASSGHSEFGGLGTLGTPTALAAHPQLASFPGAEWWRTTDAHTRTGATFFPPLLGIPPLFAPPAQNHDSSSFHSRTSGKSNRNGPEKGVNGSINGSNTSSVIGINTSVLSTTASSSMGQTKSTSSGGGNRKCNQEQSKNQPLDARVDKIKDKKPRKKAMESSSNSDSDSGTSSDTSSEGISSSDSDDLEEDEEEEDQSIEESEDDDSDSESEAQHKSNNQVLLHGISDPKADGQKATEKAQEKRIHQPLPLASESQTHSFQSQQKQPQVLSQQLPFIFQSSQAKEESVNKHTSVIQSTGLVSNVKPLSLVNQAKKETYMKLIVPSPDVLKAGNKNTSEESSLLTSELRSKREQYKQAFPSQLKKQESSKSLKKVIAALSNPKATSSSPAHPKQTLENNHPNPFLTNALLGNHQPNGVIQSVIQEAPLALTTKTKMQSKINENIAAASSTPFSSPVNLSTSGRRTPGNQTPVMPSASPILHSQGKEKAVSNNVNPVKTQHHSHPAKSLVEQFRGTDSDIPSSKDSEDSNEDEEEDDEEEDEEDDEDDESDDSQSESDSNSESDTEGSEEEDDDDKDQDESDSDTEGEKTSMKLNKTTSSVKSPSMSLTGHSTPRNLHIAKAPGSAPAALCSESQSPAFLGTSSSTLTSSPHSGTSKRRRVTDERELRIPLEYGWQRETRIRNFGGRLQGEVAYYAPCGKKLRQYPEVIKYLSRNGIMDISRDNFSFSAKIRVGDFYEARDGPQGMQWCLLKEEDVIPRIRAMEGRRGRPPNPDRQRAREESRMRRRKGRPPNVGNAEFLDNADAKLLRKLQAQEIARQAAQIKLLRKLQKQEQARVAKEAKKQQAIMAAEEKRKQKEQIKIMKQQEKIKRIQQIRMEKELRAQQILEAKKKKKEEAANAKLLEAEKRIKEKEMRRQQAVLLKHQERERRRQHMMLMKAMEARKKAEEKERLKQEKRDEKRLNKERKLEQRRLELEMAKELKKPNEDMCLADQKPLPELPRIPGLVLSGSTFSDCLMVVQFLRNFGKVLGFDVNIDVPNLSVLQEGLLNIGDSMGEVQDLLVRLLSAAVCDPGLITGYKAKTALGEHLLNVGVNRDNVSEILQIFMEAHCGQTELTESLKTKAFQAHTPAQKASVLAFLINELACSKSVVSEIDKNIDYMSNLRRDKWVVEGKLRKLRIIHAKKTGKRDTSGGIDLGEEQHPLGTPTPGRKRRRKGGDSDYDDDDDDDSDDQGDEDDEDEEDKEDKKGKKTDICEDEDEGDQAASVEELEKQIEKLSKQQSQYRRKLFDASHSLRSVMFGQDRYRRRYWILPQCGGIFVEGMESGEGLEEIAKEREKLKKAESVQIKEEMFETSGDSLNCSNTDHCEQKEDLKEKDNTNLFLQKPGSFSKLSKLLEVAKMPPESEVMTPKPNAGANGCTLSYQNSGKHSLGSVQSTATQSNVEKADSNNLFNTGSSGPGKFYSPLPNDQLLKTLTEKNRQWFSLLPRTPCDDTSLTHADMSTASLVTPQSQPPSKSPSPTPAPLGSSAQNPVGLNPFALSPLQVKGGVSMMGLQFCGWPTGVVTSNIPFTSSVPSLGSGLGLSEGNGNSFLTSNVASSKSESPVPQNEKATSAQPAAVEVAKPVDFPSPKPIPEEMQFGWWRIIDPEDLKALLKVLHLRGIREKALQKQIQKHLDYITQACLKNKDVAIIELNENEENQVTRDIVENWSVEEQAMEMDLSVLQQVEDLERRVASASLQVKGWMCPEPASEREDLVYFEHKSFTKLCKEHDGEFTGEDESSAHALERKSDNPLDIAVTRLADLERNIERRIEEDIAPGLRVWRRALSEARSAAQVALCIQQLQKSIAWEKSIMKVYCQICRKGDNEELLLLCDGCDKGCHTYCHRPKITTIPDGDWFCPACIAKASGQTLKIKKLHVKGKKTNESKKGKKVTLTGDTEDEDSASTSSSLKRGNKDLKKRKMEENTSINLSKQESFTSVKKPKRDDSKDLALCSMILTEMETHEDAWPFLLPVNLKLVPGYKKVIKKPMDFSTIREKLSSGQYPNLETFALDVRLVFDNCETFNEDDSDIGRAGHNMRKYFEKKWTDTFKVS
T5 sequence (P25440 71-194 limits assumed): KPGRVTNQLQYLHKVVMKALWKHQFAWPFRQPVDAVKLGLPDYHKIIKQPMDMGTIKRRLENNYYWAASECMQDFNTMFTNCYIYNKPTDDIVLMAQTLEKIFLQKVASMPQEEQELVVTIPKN

CC[C@H](C)[C@@H]1NC(=O)[C@H]([C@@H](C)O)NC(=O)[C@H](CCCCN)NC(=O)[C@H](Cc2c[nH]c3ccccc23)NC(=O)CSC[C@@H](C(N)=O)NC(=O)[C@H](CCC(N)=O)NC(=O)[C@H](CCCCNC(C)=O)NC(=O)[C@H]([C@@H](C)O)NC(=O)[C@H](CCCNC(=N)N)NC(=O)[C@H](Cc2c[nH]c3ccccc23)NC(=O)[C@H]([C@@H](C)O)NC(=O)[C@H](CCCCNC(C)=O)NC(=O)CNC(=O)[C@H](CCCCNC(C)=O)NC1=O [3.1B] ({CH2CO}-WKTIK(Ac)GK(Ac)TWRTK(Ac)QC-NH2; thioether N-14)
Percent Control BRD4(2) (BRD4(2)): 99%
Percent Control BRD7 (BRD7): 99%
Percent Control FALZ (FALZ): 73%
Percent Control BRD3(1) (BRD3(1)): 1.4%
Percent Control BRD2(1) (BRD2(1)): 21%
Percent Control BAZ2B (BAZ2B): 100%
Percent Control CREBBP (CREBBP): 100%
Percent Control BRDT(1) (BRDT(1)): 0%
Percent Control BRD1 (BRD1): 100%
Percent Control SMARCA2 (SMARCA2): 34%

CC[C@H](C)[C@@H]1NC(=O)[C@H](Cc2c[nH]c3ccccc23)NC(=O)[C@H](Cc2c[nH]c3ccccc23)NC(=O)CSC[C@@H](C(N)=O)NC(=O)CNC(=O)[C@H](CCCCNC(C)=O)NC(=O)[C@H](CCCCN)NC(=O)[C@H](C(C)C)NC(=O)[C@H](CCCCNC(C)=O)NC(=O)[C@@H]2CCCN2C(=O)[C@H]([C@@H](C)CC)NC1=O [3.1C] ({CH2CO}-WWIIPK(Ac)VKK(Ac)GC-NH2; thioether N-11)
Percent Control BRD4(2) (BRD4(2)): 13%
Percent Control BRD7 (BRD7): 96%
Percent Control FALZ (FALZ): 93%
Percent Control BRD3(1) (BRD3(1)): 0%
Percent Control BRD2(1) (BRD2(1)): 2.4%
Percent Control BAZ2B (BAZ2B): 100%
Percent Control CREBBP (CREBBP): 100%
Percent Control BRDT(1) (BRDT(1)): 0%
Percent Control BRD1 (BRD1): 97%
Percent Control SMARCA2 (SMARCA2): 35%

CC[C@H](C)[C@H](NC(=O)[C@H](CCCNC(=N)N)NC(=O)[C@H](CCCCNC(C)=O)NC(=O)[C@H](CCCNC(=N)N)NC(=O)[C@H](CC(C)C)NC(=O)[C@@H]1CSCC(=O)N[C@@H](Cc2c[nH]c3ccccc23)C(=O)N[C@@H](CCCCNC(C)=O)C(=O)NCC(=O)N[C@@H](Cc2ccc(O)cc2)C(=O)N[C@@H](CC(C)C)C(=O)N1)C(=O)N[C@@H](CCC(N)=O)C(=O)N[C@@H](CCCNC(=N)N)C(=O)N[C@H](C(=O)N[C@@H](Cc1ccc(O)cc1)C(=O)N[C@@H](CC(N)=O)C(N)=O)[C@@H](C)O [4.2C] ({CH2CO}-WK(Ac)GYLCLRK(Ac)RIQRTYN-NH2; thioether N-6)
remaining binding at 1 µM (BRD4(2); read-out: Percent Control BRD4(2)): 24%
remaining binding at 1 µM (BRD7; read-out: Percent Control BRD7): 97%
remaining binding at 1 µM (FALZ; read-out: Percent Control FALZ): 96%
remaining binding at 1 µM (BRD3(1); read-out: Percent Control BRD3(1)): 100%
percent of control binding at 1 µM (BRD2(1)): 85%
remaining binding at 1 µM (BAZ2B; read-out: Percent Control BAZ2B): 99%
remaining binding at 1 µM (CREBBP; read-out: Percent Control CREBBP): 100%
remaining binding at 1 µM (BRDT(1); read-out: Percent Control BRDT(1)): 85%
percent of control binding at 1 µM (BRD1): 84%
percent of control binding at 1 µM (SMARCA2): 36%
